Results reported in patent US20130252816A1, “HERBICIDAL COMPOSITION AND USE THEREOF” (Syngenta Crop Protection LLC, priority 2010, published 2013).

Experiments:
[1] = system: broadleaf weeds and grasses; test: Example 4: overall statement, broadleaf weeds and grasses; format: in vivo; settings: 2.5% w/v in admixture with glyphosate (Weedbuster)
Text: The effect on broadleaf weeds and grasses of different concentrations of Genapol™ X060 (iso-tridecyl alcohol polyglycol ether with 6 moles of ethoxylation) in admixture with glyphosate was investigated.
Troughs (measuring 55 cm by 9 cm by 8.5 cm) were filled with local field soil. Seeds of Taraxacum officinale, Urtica dioica, Trifolium repens and Poa annua were sown 41 days before application of test samples, and seeds of Stellaria media, Veronica persica, Agropyron repens and Lolium multiflorum were sown 24 days before application of test samples. Plants were grown in the glasshouse at 18 to 20° C. and 60% relative humidity. One week before application of test samples, troughs were placed outside (but covered).
Application of test samples was carried out using a tracksprayer, spraying at a rate of 300 l/ha. Treated plants were kept outside and visual assessment of the percentage damage to the plants was carried out at 1, 7, 14, and 21 days after application.
(§1) Damage was assessed as wilting, desiccation or any other kind of visual injury in comparison to the untreated control (water only).

Trifolium repens = test: Example 2: alcohol ethoxylate adjuvants without glyphosate, visual % damage, tracksprayer 300 l/ha; format: in vivo
Text: (§2) The effect of different types of alcohol ethoxylate (branched—Genapol X-series, and unbranched—Genapol O-series, differing degrees of ethoxylation, see Table 3 below for more details), on unwanted vegetation (broadleaf weed and grass species), in the absence of glyphosate, was investigated and compared to untreated (water only) control weeds.
(§3) Troughs (measuring 16 cm by 13 cm by 5 cm) were filled with local field soil. Seeds of Veronica persica, Stellaria media, Trifolium repens and Poa annua were sown 24 days before application of test samples. Plants were grown in the glasshouse at 18 to 20° C. and 60% relative humidity. Application of alcohol ethoxylate test samples was carried out using a tracksprayer, spraying at a rate of 300 l/ha. Plants were kept in glasshouse and visual assessment of the estimated percentage damage to the plant was carried out 1, 7, and 14 days from application.
as §1

Veronica persica = test: as above; format: in vivo
Text: as §2, §3, §1

Poa annua [2] = test: as above; format: in vivo
Text: as §2, §3, §1

Stellaria media [3] = test: as above; format: in vivo
Text: as §2, §3, §1

Taraxacum officinale = test: Example 1: adjuvants alone, visual % damage, pots in glasshouse; format: in vivo
Summary of the method: (§4)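 Glasshouse pot seedlings (18 to 20° C, 60% RH) were airbrushed with 60 μl of 1.25, 2.5, 5 or 10% (w/v) adjuvant solution. Stellaria and Poa were sprayed 15 days after sowing, Taraxacum at 34 days. Visual % damage (wilting, desiccation, other injury) versus water-treated controls was scored at 1 and 6 days.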

Poa annua [4] = test: as above; format: in vivo
Summary of the method: as §4

Stellaria media [5] = test: as above; format: in vivo
Summary of the method: as §4

[6] = system: broadleaf weeds and grasses; test: Example 1: overall statement on adjuvants alone; format: in vivo; settings: 1 and 6 days after treatment, adjuvant alone
Procedure: The effect of different adjuvants (see Table 1 below) on the growth of broadleaf weed and grass species was investigated and compared to untreated (water only) control weeds.
Plates, each with 48 pots measuring 2.7 cm diameter and 5 cm deep, were filled with TKS1 growing media (Floragard, Germany). Seeds of Taraxacum officinale, Stellaria media or Poa annua were sown on the surface (10 to 20 per pot). Plants were grown in glasshouse at a temperature of 18 to 20° C. and at 60% relative humidity.
Plants were treated 15 (Stellaria, Poa) and 34 (Taraxacum) days after sowing with 60 μl of a 1.25, 2.5, 5 and 10% (w/v) solution of adjuvant using a hand airbrush.
Visual assessment of the percentage damage to the plant was carried out 1 day and 6 days from application.
as §1

Grass mix = test: Example 3: branched chain alcohol ethoxylates in admixture with glyphosate, visual % damage, 600 l/ha; format: in vivo, mixture of grasses; settings: adjuvant where present 5% w/v
Procedure: (§5) The effects of different branched chain alcohol ethoxylates in admixture with glyphosate on both Dandelions and a mixture of grasses were investigated.
(§6) Dandelion samples and a mixture of grasses obtained from a meadow environment were planted into square 20 cm pots and kept and grown on in glasshouse for at least 2 weeks (18 to 20° C., 60% relative humidity).
(§7) Application of branched chain alcohol ethoxylate was carried out using a tracksprayer, spraying at a rate of 600 l/ha.
(§8) Visual assessment of the estimated percentage damage to the plant was carried out 1, 6, 13, and 20 days from application.
as §1

Dandelion = test: as above; format: in vivo; settings: adjuvant where present 5% w/v
Procedure: as §5, §6, §7, §8, §1

[7] = system: broadleaf weed and grass species; test: Example 2: overall statement on alcohol ethoxylates without glyphosate; format: in vivo; settings: absence of glyphosate
Text: as §2, §3, §1

[8] = system: Dandelions and a mixture of grasses; test: Example 3: overall statement, Dandelions and mixture of grasses; format: in vivo; settings: absence of glyphosate, 5% w/v
Procedure: as §5, §6, §7, §8, §1

Iso-tridecyl alcohol polyglycol ether with 6 moles of ethoxylation [GenapolX060]
rapid symptomology versus Roundup and Weedbuster [1]: more rapid symptomology against all weeds in comparison to Roundup
mean % damage 1 daa Trifolium repens (Trifolium repens; adjuvant 1% w/v): 40%
mean % damage 7 daa Trifolium repens (Trifolium repens; adjuvant 1% w/v): 40%
mean % damage 14 daa Trifolium repens (Trifolium repens; adjuvant 1% w/v): 0%
mean % damage 1 daa Trifolium repens (Trifolium repens; adjuvant 1.5% w/v): 60%
mean % damage 7 daa Trifolium repens (Trifolium repens; adjuvant 1.5% w/v): 50%
mean % damage 14 daa Trifolium repens (Trifolium repens; adjuvant 1.5% w/v): 0%
mean % damage 1 daa Trifolium repens (Trifolium repens; adjuvant 2% w/v): 70%
mean % damage 7 daa Trifolium repens (Trifolium repens; adjuvant 2% w/v): 60%
mean % damage 14 daa Trifolium repens (Trifolium repens; adjuvant 2% w/v): 0%
mean % damage 1 daa Trifolium repens (Trifolium repens; adjuvant 2.5% w/v): 70%
mean % damage 7 daa Trifolium repens (Trifolium repens; adjuvant 2.5% w/v): 60%
mean % damage 14 daa Trifolium repens (Trifolium repens; adjuvant 2.5% w/v): 5%
mean % damage 1 daa Veronica persica (Veronica persica; adjuvant 1% w/v): 10%
mean % damage 7 daa Veronica persica (Veronica persica; adjuvant 1% w/v): 10%
mean % damage 14 daa Veronica persica (Veronica persica; adjuvant 1% w/v): 5%
mean % damage 1 daa Veronica persica (Veronica persica; adjuvant 1.5% w/v): 20%
mean % damage 7 daa Veronica persica (Veronica persica; adjuvant 1.5% w/v): 20%
mean % damage 14 daa Veronica persica (Veronica persica; adjuvant 1.5% w/v): 10%
mean % damage 1 daa Veronica persica (Veronica persica; adjuvant 2% w/v): 70%
mean % damage 7 daa Veronica persica (Veronica persica; adjuvant 2% w/v): 70%
mean % damage 14 daa Veronica persica (Veronica persica; adjuvant 2% w/v): 50%
mean % damage 1 daa Veronica persica (Veronica persica; adjuvant 2.5% w/v): 60%
mean % damage 7 daa Veronica persica (Veronica persica; adjuvant 2.5% w/v): 40%
mean % damage 14 daa Veronica persica (Veronica persica; adjuvant 2.5% w/v): 40%
mean % damage 1 daa Poa annua (Poa annua [2]; adjuvant 1% w/v): 20%
mean % damage 7 daa Poa annua (Poa annua [2]; adjuvant 1% w/v): 30%
mean % damage 14 daa Poa annua (Poa annua [2]; adjuvant 1% w/v): 10%
mean % damage 1 daa Poa annua (Poa annua [2]; adjuvant 1.5% w/v): 20%
mean % damage 7 daa Poa annua (Poa annua [2]; adjuvant 1.5% w/v): 40%
mean % damage 14 daa Poa annua (Poa annua [2]; adjuvant 1.5% w/v): 10%
mean % damage 1 daa Poa annua (Poa annua [2]; adjuvant 2% w/v): 40%
mean % damage 7 daa Poa annua (Poa annua [2]; adjuvant 2% w/v): 50%
mean % damage 14 daa Poa annua (Poa annua [2]; adjuvant 2% w/v): 15%
mean % damage 1 daa Poa annua (Poa annua [2]; adjuvant 2.5% w/v): 40%
mean % damage 7 daa Poa annua (Poa annua [2]; adjuvant 2.5% w/v): 50%
mean % damage 14 daa Poa annua (Poa annua [2]; adjuvant 2.5% w/v): 0%
mean % damage 1 daa Stellaria media (Stellaria media [3]; adjuvant 1% w/v): 5%
mean % damage 7 daa Stellaria media (Stellaria media [3]; adjuvant 1% w/v): 5%
mean % damage 14 daa Stellaria media (Stellaria media [3]; adjuvant 1% w/v): 0%
mean % damage 1 daa Stellaria media (Stellaria media [3]; adjuvant 1.5% w/v): 10%
mean % damage 7 daa Stellaria media (Stellaria media [3]; adjuvant 1.5% w/v): 10%
mean % damage 14 daa Stellaria media (Stellaria media [3]; adjuvant 1.5% w/v): 0%
mean % damage 1 daa Stellaria media (Stellaria media [3]; adjuvant 2% w/v): 10%
mean % damage 7 daa Stellaria media (Stellaria media [3]; adjuvant 2% w/v): 30%
mean % damage 14 daa Stellaria media (Stellaria media [3]; adjuvant 2% w/v): 10%
mean % damage 1 daa Stellaria media (Stellaria media [3]; adjuvant 2.5% w/v): 20%
mean % damage 7 daa Stellaria media (Stellaria media [3]; adjuvant 2.5% w/v): 40%
mean % damage 14 daa Stellaria media (Stellaria media [3]; adjuvant 2.5% w/v): 20%
avg % damage 1 DAA Taraxacum officinale (Taraxacum officinale; adjuvant 1.25% w/v): 5%
avg % damage 6 DAA Taraxacum officinale (Taraxacum officinale; adjuvant 1.25% w/v): 20%
avg % damage 1 DAA Taraxacum officinale (Taraxacum officinale; adjuvant 2.5% w/v): 10%
avg % damage 6 DAA Taraxacum officinale (Taraxacum officinale; adjuvant 2.5% w/v): 20%
avg % damage 1 DAA Taraxacum officinale (Taraxacum officinale; adjuvant 5% w/v): 30%
avg % damage 6 DAA Taraxacum officinale (Taraxacum officinale; adjuvant 5% w/v): 40%
avg % damage 1 DAA Taraxacum officinale (Taraxacum officinale; adjuvant 10% w/v): 45%
avg % damage 6 DAA Taraxacum officinale (Taraxacum officinale; adjuvant 10% w/v): 35%
avg % damage 1 DAA Poa annua (Poa annua [4]; adjuvant 1.25% w/v): 45%
avg % damage 6 DAA Poa annua (Poa annua [4]; adjuvant 1.25% w/v): 50%
avg % damage 1 DAA Poa annua (Poa annua [4]; adjuvant 2.5% w/v): 55%
avg % damage 6 DAA Poa annua (Poa annua [4]; adjuvant 2.5% w/v): 70%
avg % damage 1 DAA Poa annua (Poa annua [4]; adjuvant 5% w/v): 75%
avg % damage 6 DAA Poa annua (Poa annua [4]; adjuvant 5% w/v): 80%
avg % damage 1 DAA Poa annua (Poa annua [4]; adjuvant 10% w/v): 70%
avg % damage 6 DAA Poa annua (Poa annua [4]; adjuvant 10% w/v): 80%
avg % damage 1 DAA Stellaria media (Stellaria media [5]; adjuvant 1.25% w/v): 25%
avg % damage 6 DAA Stellaria media (Stellaria media [5]; adjuvant 1.25% w/v): 35%
avg % damage 1 DAA Stellaria media (Stellaria media [5]; adjuvant 2.5% w/v): 30%
avg % damage 6 DAA Stellaria media (Stellaria media [5]; adjuvant 2.5% w/v): 40%
avg % damage 1 DAA Stellaria media (Stellaria media [5]; adjuvant 5% w/v): 35%
avg % damage 6 DAA Stellaria media (Stellaria media [5]; adjuvant 5% w/v): 65%
avg % damage 1 DAA Stellaria media (Stellaria media [5]; adjuvant 10% w/v): 60%
avg % damage 6 DAA Stellaria media (Stellaria media [5]; adjuvant 10% w/v): 85%
visual symptoms of phytotoxicity [6]: comparatively high level of visual symptoms of phytoxicity
% Damage 1 daa Grass mix (Grass mix): 20%
% Damage 6 daa Grass mix (Grass mix): 50%
% Damage 13 daa Grass mix (Grass mix): 40%
% Damage 20 daa Grass mix (Grass mix): 40%
% Damage 1 daa Dandelion (Dandelion): 40%
% Damage 6 daa Dandelion (Dandelion): 50%
% Damage 13 daa Dandelion (Dandelion): 30%
% Damage 20 daa Dandelion (Dandelion): 20%
course of damage over time (recovery) [7]: the level of damage decreases from day 14 onwards
course of damage over time (recovery) [8]: the level of damage decreases from day 13 onwards
